Results taken from patent US12568972B2, “Pyridazinol compounds and derivatives, preparation methods, herbicidal compositions and applications thereof” (Qingdao Kingagroot Chemical Compound Co., Ltd., priority 2018, dated 2026).

Assays:
Assay in all cases: Post-emergence test, weed control effect
Type in all cases: in vivo
Conditions in all cases: after 3 weeks
[1] = test system: Amaranthus retroflexus
From the text: (§1) The activity level standard of harmful plant destruction (i.e. growth inhibition rate) is as follows: • Level 10: completely dead; • Level 9: above 90% growth inhibition rate; • Level 8: above 80% growth inhibition rate; • Level 7: above 70% growth inhibition rate; • Level 6: above 60% growth inhibition rate; • Level 5: above 50% growth inhibition rate; • Level 4: above 40% growth inhibition rate; • Level 3: above 30% growth inhibition rate; • Level 2: above 20% growth inhibition rate; • Level 1: below 20% growth inhibition rate; • Level 0: no effect.
(§2) The above described growth inhibition rates are fresh weight inhibition rates.
(§3) Experiment of post-emergence test: monocotyledonous and dicotyledonous weed seeds as well as main crop seeds (i.e., wheat, corn, rice, soybean, cotton, oilseed rape, millet and sorghum) were put into a plastic pot loaded with soil, then covered with 0.5-2 cm of soil, and the seeds were allowed to grow in good greenhouse environment. The test plants were treated at 2-3 leaf stage 2-3 weeks after sowing. The test compounds of the invention were dissolved in acetone respectively, then added with Tween-80 and diluted by a certain amount of water to give solutions with certain concentrations, and added with 80% vegetable oil methyl ester synergist at 1500 g/ha. The solution was sprayed to the plants with a sprayer. The plants were cultured for 3 weeks in the greenhouse.

[2] = test system: Chenopodiaceae
From the text: as §1, §2, §3

[3] = test system: Rorippa indica
From the text: as §1, §2, §3

[4] = test system: Veronica polita
From the text: as §1, §2, §3

O=C(Oc1cc(C(F)(F)F)nnc1-c1ccc(F)c(F)c1)c1cc2ccccc2o1 [Compound 1-120]
10: weed control effect, Amaranthus retroflexus (activity level) ([1]; Dose 3000 g/ha) | weed control effect, Chenopodiaceae (activity level) ([2]; Dose 3000 g/ha) | weed control effect, Rorippa indica (activity level) ([3]; Dose 3000 g/ha) | weed control effect, Veronica polita (activity level) ([4]; Dose 3000 g/ha)

CS(=O)(=O)c1ccc(S(=O)(=O)Oc2cc(C(F)(F)F)nnc2-c2ccc(F)cc2)cc1 [Compound 1-137]
10: weed control effect, Amaranthus retroflexus (activity level) ([1]; Dose 3000 g/ha) | weed control effect, Chenopodiaceae (activity level) ([2]; Dose 3000 g/ha) | weed control effect, Rorippa indica (activity level) ([3]; Dose 3000 g/ha) | weed control effect, Veronica polita (activity level) ([4]; Dose 3000 g/ha)

Oc1cc(C(F)(F)F)nnc1-c1ccc2occc2c1 [Compound 595]
10: weed control effect (activity level), Amaranthus retroflexus ([1]; Dose 3000 g/ha) | weed control effect (activity level), Chenopodiaceae ([2]; Dose 3000 g/ha) | weed control effect (activity level), Rorippa indica ([3]; Dose 3000 g/ha) | weed control effect (activity level), Veronica polita ([4]; Dose 3000 g/ha)

Cc1cc(-c2nnc(C(F)(F)F)cc2O)nn1C [Compound 540]
10: weed control effect (activity level), Amaranthus retroflexus ([1]; Dose 3000 g/ha) | weed control effect (activity level), Chenopodiaceae ([2]; Dose 3000 g/ha) | weed control effect (activity level), Rorippa indica ([3]; Dose 3000 g/ha) | weed control effect (activity level), Veronica polita ([4]; Dose 3000 g/ha)

CSc1ccc(-c2nnc(C(F)(F)F)cc2OC(=O)SCCc2ccccc2)cc1 [Compound 1-103]
10: weed control effect, Amaranthus retroflexus (activity level) ([1]; Dose 3000 g/ha) | weed control effect, Chenopodiaceae (activity level) ([2]; Dose 3000 g/ha) | weed control effect, Rorippa indica (activity level) ([3]; Dose 3000 g/ha) | weed control effect, Veronica polita (activity level) ([4]; Dose 3000 g/ha)

C/C(=N/Oc1cc(C(F)(F)F)nnc1-c1ccc(C)c(C)c1)C(C)(C)C [Compound 1-174]
10: weed control effect, Amaranthus retroflexus (activity level) ([1]; Dose 3000 g/ha) | weed control effect, Chenopodiaceae (activity level) ([2]; Dose 3000 g/ha) | weed control effect, Rorippa indica (activity level) ([3]; Dose 3000 g/ha) | weed control effect, Veronica polita (activity level) ([4]; Dose 3000 g/ha)

Oc1cc(C(F)(F)F)nnc1-c1cccc(Cl)c1Cl [Compound 42]
10: weed control effect (activity level), Amaranthus retroflexus ([1]; dose 1000 g/ha) | weed control effect (activity level), Chenopodiaceae ([2]; dose 1000 g/ha) | weed control effect (activity level), Rorippa indica ([3]; dose 1000 g/ha) | weed control effect (activity level), Veronica polita ([4]; dose 1000 g/ha)

Cn1nc(Br)cc1-c1nnc(C(F)(F)F)cc1O [Compound 777]
10: weed control effect (activity level), Amaranthus retroflexus ([1]; Dose 3000 g/ha) | weed control effect (activity level), Chenopodiaceae ([2]; Dose 3000 g/ha) | weed control effect (activity level), Rorippa indica ([3]; Dose 3000 g/ha) | weed control effect (activity level), Veronica polita ([4]; Dose 3000 g/ha)

CP(=O)(O)CCC(N)C(=O)Oc1cc(C(F)(F)F)nnc1-c1ccc(F)cc1 (centres unmarked) [Compound 1-78]
10: weed control effect, Amaranthus retroflexus (activity level) ([1]; Dose 3000 g/ha) | weed control effect, Chenopodiaceae (activity level) ([2]; Dose 3000 g/ha) | weed control effect, Rorippa indica (activity level) ([3]; Dose 3000 g/ha) | weed control effect, Veronica polita (activity level) ([4]; Dose 3000 g/ha)

Oc1cc(C(F)(F)F)nnc1-c1cncc(Cl)c1Cl [Compound 996]
10: weed control effect (activity level), Amaranthus retroflexus ([1]; Dose 3000 g/ha) | weed control effect (activity level), Chenopodiaceae ([2]; Dose 3000 g/ha) | weed control effect (activity level), Rorippa indica ([3]; Dose 3000 g/ha) | weed control effect (activity level), Veronica polita ([4]; Dose 3000 g/ha)

Oc1cc(C(F)(F)F)nnc1-c1cnc(F)cc1Cl [Compound 1001]
10: weed control effect (activity level), Amaranthus retroflexus ([1]; Dose 3000 g/ha) | weed control effect (activity level), Chenopodiaceae ([2]; Dose 3000 g/ha) | weed control effect (activity level), Rorippa indica ([3]; Dose 3000 g/ha) | weed control effect (activity level), Veronica polita ([4]; Dose 3000 g/ha)

Cc1ccc(-c2nnc(C(F)(F)F)cc2O)cc1F [Compound 56]
10: weed control effect (activity level), Amaranthus retroflexus ([1]; dose 1000 g/ha) | weed control effect (activity level), Chenopodiaceae ([2]; dose 1000 g/ha) | weed control effect (activity level), Rorippa indica ([3]; dose 1000 g/ha) | weed control effect (activity level), Veronica polita ([4]; dose 1000 g/ha)

CCc1cc(-c2nnc(C(F)(F)F)cc2O)n(C)n1 [Compound 780]
10: weed control effect (activity level), Amaranthus retroflexus ([1]; Dose 3000 g/ha) | weed control effect (activity level), Chenopodiaceae ([2]; Dose 3000 g/ha) | weed control effect (activity level), Rorippa indica ([3]; Dose 3000 g/ha) | weed control effect (activity level), Veronica polita ([4]; Dose 3000 g/ha)

CN(C)c1ccc(C(=O)Oc2cc(C(F)(F)F)nnc2-c2cccc(F)c2)cc1 [Compound 1-90]
10: weed control effect, Amaranthus retroflexus (activity level) ([1]; Dose 3000 g/ha) | weed control effect, Chenopodiaceae (activity level) ([2]; Dose 3000 g/ha) | weed control effect, Rorippa indica (activity level) ([3]; Dose 3000 g/ha) | weed control effect, Veronica polita (activity level) ([4]; Dose 3000 g/ha)

Cc1cc(C(=O)Oc2cc(C(F)(F)F)nnc2-c2ccc(F)c(F)c2)no1 [Compound 1-107]
10: weed control effect, Amaranthus retroflexus (activity level) ([1]; Dose 3000 g/ha) | weed control effect, Chenopodiaceae (activity level) ([2]; Dose 3000 g/ha) | weed control effect, Rorippa indica (activity level) ([3]; Dose 3000 g/ha) | weed control effect, Veronica polita (activity level) ([4]; Dose 3000 g/ha)

Oc1cc(C(F)(F)F)nnc1-c1cncc(F)c1 [Compound 963]
10: weed control effect (activity level), Amaranthus retroflexus ([1]; Dose 3000 g/ha) | weed control effect (activity level), Chenopodiaceae ([2]; Dose 3000 g/ha) | weed control effect (activity level), Rorippa indica ([3]; Dose 3000 g/ha) | weed control effect (activity level), Veronica polita ([4]; Dose 3000 g/ha)

CCCCCC/C(C)=N\Oc1cc(C(F)(F)F)nnc1-c1ccc(Cl)cc1Cl [Compound 1-176]
10: weed control effect, Amaranthus retroflexus (activity level) ([1]; Dose 3000 g/ha) | weed control effect, Chenopodiaceae (activity level) ([2]; Dose 3000 g/ha) | weed control effect, Rorippa indica (activity level) ([3]; Dose 3000 g/ha) | weed control effect, Veronica polita (activity level) ([4]; Dose 3000 g/ha)
